Test results from patent publication US20240116988A1, “ANTI-ROR1 MACROCYCLIC PEPTIDES AND COMPOSITIONS” (BRISTOL-MYERS SQUIBB COMPANY, priority 2022, published 2024).
Positions of bridges follow the written chain, without caps; N, C: chain ends. Non-standard residues stand in square brackets, D forms with d. Residues, ends and D or L forms follow the SMILES beside them. Bip = N[C@@H](Cc1ccc(-c2ccccc2)cc1)C(=O)O; NMeY = CN[C@@H](Cc1ccc(O)cc1)C(=O)O; NMeF = CN[C@@H](Cc1ccccc1)C(=O)O; Sar = CNCC(=O)O

Target: T1, human ROR1 (Homo sapiens, UniProt Q01973)
T1 construct: host or cells: HEK 293T cells, Tet-on system induced with doxycycline
Experiment: ROR1 high content cell-based binding assay
Details: read-out: ROR1 Binding 293T Human HC Cell Based Assay IC50
Outline: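 Doxycycline-induced 293T cells expressing human ROR1, seeded overnight, were treated with compound plus 5-FAM-labeled ROR1-binding probe peptide (30 nM final) for 1 h at 37 °C. After washing and formaldehyde/Hoechst fixation, cell-bound probe fluorescence was read by high-content imaging.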

T1 sequence (Q01973 30-937): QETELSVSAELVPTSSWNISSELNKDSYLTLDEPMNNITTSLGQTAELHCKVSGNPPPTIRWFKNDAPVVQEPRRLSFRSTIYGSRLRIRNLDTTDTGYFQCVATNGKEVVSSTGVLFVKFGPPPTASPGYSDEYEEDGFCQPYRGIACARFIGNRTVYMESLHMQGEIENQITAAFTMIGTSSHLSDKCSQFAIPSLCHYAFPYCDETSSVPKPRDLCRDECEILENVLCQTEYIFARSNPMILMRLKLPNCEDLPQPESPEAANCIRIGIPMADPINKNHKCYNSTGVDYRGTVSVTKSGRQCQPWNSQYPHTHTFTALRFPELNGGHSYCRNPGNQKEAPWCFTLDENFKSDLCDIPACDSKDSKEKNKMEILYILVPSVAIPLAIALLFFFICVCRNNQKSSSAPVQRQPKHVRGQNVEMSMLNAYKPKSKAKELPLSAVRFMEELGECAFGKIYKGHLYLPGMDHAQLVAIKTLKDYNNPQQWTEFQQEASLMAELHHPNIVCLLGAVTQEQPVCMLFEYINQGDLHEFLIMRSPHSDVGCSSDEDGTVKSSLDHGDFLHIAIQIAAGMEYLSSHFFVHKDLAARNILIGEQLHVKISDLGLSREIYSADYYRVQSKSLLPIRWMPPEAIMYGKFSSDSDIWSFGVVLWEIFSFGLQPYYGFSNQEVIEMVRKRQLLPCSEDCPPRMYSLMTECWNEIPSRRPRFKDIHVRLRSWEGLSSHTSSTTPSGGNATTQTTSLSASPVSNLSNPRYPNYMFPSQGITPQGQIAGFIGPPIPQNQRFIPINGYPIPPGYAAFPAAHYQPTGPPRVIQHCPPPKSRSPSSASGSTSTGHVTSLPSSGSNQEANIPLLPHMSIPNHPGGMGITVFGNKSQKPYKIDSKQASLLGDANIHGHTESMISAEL

IC50 [nM]	Structure (SMILES)
151	CC(C)C[C@@H]1NC(=O)[C@H](CC(N)=O)NC(=O)[C@H](Cc2ccccc2)N(C)C(=O)CNC(=O)[C@H](Cc2ccc(O)cc2)NC(=O)[C@H](Cc2ccccc2)NC(=O)CSC[C@@H](C(=O)NCC(N)=O)NC(=O)[C@H](Cc2c[nH]c3ccccc23)NC(=O)[C@H](Cc2ccc(O)cc2)NC1=O [Example 1118] ({CH2CO}-FYG[NMeF]NLYWCG-NH2; thioether N-9)
790	CC(C)C[C@@H]1NC(=O)[C@H](CC(N)=O)NC(=O)[C@H](Cc2ccccc2)N(C)C(=O)CNC(=O)[C@H](Cc2ccc(O)cc2)NC(=O)[C@H](Cc2ccc(O)cc2)NC(=O)CSC[C@@H](C(N)=O)NC(=O)[C@H](Cc2c[nH]c3ccccc23)NC(=O)[C@H](Cc2ccc(O)cc2)NC1=O [Example 1120] ({CH2CO}-YYG[NMeF]NLYWC-NH2; thioether N-9)
378	CC(C)C[C@@H]1NC(=O)CNC(=O)[C@H](Cc2ccccc2)N(C)C(=O)CNC(=O)[C@H](Cc2ccc(O)cc2)NC(=O)[C@H](Cc2ccccc2)NC(=O)CSC[C@@H](C(N)=O)NC(=O)[C@H](Cc2c[nH]c3ccccc23)NC(=O)[C@H](Cc2ccc(O)cc2)NC1=O [Example 1121] ({CH2CO}-FYG[NMeF]GLYWC-NH2; thioether N-9)
567	CC(C)C[C@@H]1NC(=O)[C@@H](CCC(N)=O)NC(=O)[C@H](Cc2ccccc2)N(C)C(=O)CNC(=O)[C@H](Cc2ccc(O)cc2)NC(=O)[C@H](Cc2ccccc2)NC(=O)CSC[C@@H](C(N)=O)NC(=O)[C@H](Cc2c[nH]c3ccccc23)NC(=O)[C@H](Cc2ccc(O)cc2)NC1=O [Example 1122] ({CH2CO}-FYG[NMeF][dQ]LYWC-NH2; thioether N-9)
126	CC(C)C[C@@H]1NC(=O)[C@H](CC(N)=O)NC(=O)[C@H](Cc2ccc(O)cc2)N(C)C(=O)CNC(=O)[C@H](Cc2ccc(O)cc2)NC(=O)[C@H](Cc2ccccc2)NC(=O)CSC[C@@H](C(N)=O)NC(=O)[C@H](Cc2c[nH]c3ccccc23)NC(=O)[C@H](Cc2ccc(O)cc2)NC1=O [Example 1123] ({CH2CO}-FYG[NMeY]NLYWC-NH2; thioether N-9)
39	CC(C)C[C@@H]1NC(=O)[C@H](Cc2ccccc2)NC(=O)CSC[C@@H](C(=O)NCC(N)=O)NC(=O)[C@H](C(C)C)NC(=O)[C@H](Cc2ccccc2)N(C)C(=O)[C@H](CC(C)C)NC(=O)[C@H](Cc2c[nH]c3ccccc23)NC(=O)CN(C)C(=O)CNC(=O)[C@H](C(C)C)NC(=O)[C@H](Cc2c[nH]c3ccccc23)NC1=O [Example 1201]
67	CC(C)C[C@@H]1NC(=O)[C@H](Cc2ccccc2)NC(=O)CSC[C@@H](C(N)=O)NC(=O)[C@H](C(C)C)NC(=O)[C@H](Cc2ccccc2)N(C)C(=O)[C@H](CC(C)C)NC(=O)[C@H](Cc2c[nH]c3ccccc23)NC(=O)CN(C)C(=O)CNC(=O)[C@H](C(C)C)NC(=O)[C@H](Cc2c[nH]c3ccccc23)NC1=O [Example 1202] ({CH2CO}-FLWVG[Sar]WL[NMeF]VC-NH2; thioether N-11)
86	CC(C)C[C@@H]1NC(=O)[C@H](Cc2ccccc2)NC(=O)CSC[C@@H](C(N)=O)NC(=O)[C@H](C(C)C)NC(=O)[C@H](Cc2ccccc2)N(C)C(=O)[C@H](CC(C)C)NC(=O)[C@H](Cc2c[nH]c3ccccc23)NC(=O)CN(C)C(=O)CNC(=O)[C@H](C(C)C)NC(=O)[C@H](Cc2c[nH]c3ccccc23)NC1=O [Example 1203] ({CH2CO}-FLWVG[Sar]WL[NMeF]VC-NH2; thioether N-11)
228	CC(C)C[C@@H]1NC(=O)[C@H](Cc2ccccc2)NC(=O)CSC[C@@H](C(N)=O)NC(=O)[C@H](C(C)C)NC(=O)[C@H](Cc2ccccc2)N(C)C(=O)[C@H](CC(C)C)NC(=O)[C@H](Cc2c[nH]c3ccccc23)NC(=O)CN(C)C(=O)CNC(=O)[C@H](C(C)C)NC(=O)[C@H](Cc2ccc(-c3ccccc3)cc2)NC1=O [Example 1204] ({CH2CO}-FL[Bip]VG[Sar]WL[NMeF]VC-NH2; thioether N-11)
346	CC(C)C[C@@H]1NC(=O)[C@H](Cc2ccccc2)NC(=O)CSC[C@@H](C(=O)NCC(N)=O)NC(=O)[C@H](C(C)C)NC(=O)[C@H](Cc2c[nH]c3ccccc23)NC(=O)[C@H](CC(C)C)NC(=O)[C@H](Cc2c[nH]c3ccccc23)NC(=O)CN(C)C(=O)CNC(=O)[C@H](C(C)C)NC(=O)[C@H](Cc2c[nH]c3ccccc23)NC1=O [Example 1205] ({CH2CO}-FLWVG[Sar]WLWVCG-NH2; thioether N-11)
